For the experiment, the target named is SHP2 (Homo sapiens (Human), UniProt Q06124). Put plainly: SHP2 Allosteric Inhibition Assay. It counts as biochemical. To be noted: 0.5 nM SHP2 activated with 0.5 μM peptide IRS1_pY1172(dPEG8)pY1222; surrogate substrate DiFMUP; prompt fluorescence. The source says:
SHP2 Allosteric Inhibition Assay
SHP2 is allosterically activated through binding of bis-tyrosyl-phorphorylated peptides to its Src Homology 2 (SH2) domains. The latter activation step leads to the release of the auto-inhibitory interface of SHP2, which in turn renders the SHP2 protein tyrosine phosphatase (PTP) active and available for substrate recognition and reaction catalysis. The catalytic activity of SHP2 was monitored using the surrogate substrate DiFMUP in a prompt fluorescence assay format.
After 30-60 minutes incubation at 25° C., the surrogate substrate DiFMUP (Invitrogen, cat #D6567) was added to the reaction and incubated at 25° C. for 30 minutes. […] The inhibitor dose response curves were analyzed using normalized IC50 regression curve fitting with control based normalization.

pIC50: −log10 of the molar value.

SHP2, sequence (Q06124 whole entry): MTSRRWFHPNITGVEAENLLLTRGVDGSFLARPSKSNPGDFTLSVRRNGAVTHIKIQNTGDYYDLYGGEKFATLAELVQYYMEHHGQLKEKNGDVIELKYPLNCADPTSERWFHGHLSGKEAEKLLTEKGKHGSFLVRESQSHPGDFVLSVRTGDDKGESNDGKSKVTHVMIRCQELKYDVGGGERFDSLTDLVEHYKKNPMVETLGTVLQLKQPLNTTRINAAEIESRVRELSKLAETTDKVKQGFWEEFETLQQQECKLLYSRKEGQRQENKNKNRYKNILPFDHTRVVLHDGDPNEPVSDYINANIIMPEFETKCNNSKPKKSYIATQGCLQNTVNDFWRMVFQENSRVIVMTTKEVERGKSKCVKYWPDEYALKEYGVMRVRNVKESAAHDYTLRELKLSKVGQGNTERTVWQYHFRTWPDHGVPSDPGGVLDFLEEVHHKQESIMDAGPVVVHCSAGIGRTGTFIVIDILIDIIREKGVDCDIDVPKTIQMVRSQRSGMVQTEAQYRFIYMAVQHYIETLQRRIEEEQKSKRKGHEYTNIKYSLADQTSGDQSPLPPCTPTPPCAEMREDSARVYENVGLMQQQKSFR

`CN1C(=O)C(C(=O)Nc2cccc(Sc3ncc(N4CCC(C)(N)CC4)nc3N)c2Cl)=C(O)C1Cc1ccccc1` (centres unmarked) [Example 54, N-(3-((3-amino-5-(4-amino-4-methylpiperidin-1-yl)pyrazin-2-yl)thio)-2-chlorophenyl)-5-benzyl-4-hydroxy-1-methyl-2-oxo-2,5-dihydro-1H-pyrrole-3-carboxamide] showed a pIC50 of 8.14. Molecule `CC1(CN)CCN(c2nnc(Sc3cccc(NC(=O)C4=C(O)CN(c5ccccc5)C4=O)c3Cl)c(N)n2)CC1` [Example 51, N-(3-((5-amino-3-(4-(aminomethyl)-4-methylpiperidin-1-yl)-1,2,4-triazin-6-yl)thio)-2-chlorophenyl)-4-hydroxy-2-oxo-1-phenyl-2,5-dihydro-1H-pyrrole-3-carboxamide] showed a negative-log IC50 (pIC50) of 7.92. The molecule `Nc1nc(N2CCC3(CC2)CCC(F)(F)[C@H]3N)cnc1Sc1cccc(NC(=O)c2c(O)nc3ccccn3c2=O)c1Cl` [Example 22, (S)-N-(3-((3-amino-5-(1-amino-2,2-difluoro-8-azaspiro[4.5]decan-8-yl)pyrazin-2-yl)thio)-2-chlorophenyl)-2-hydroxy-4-oxo-4H-pyrido[1,2-a]pyrimidine-3-carboxamide] showed a pIC50 of 8.00. Molecule `Cn1c(=O)c(C(=O)Nc2cccc(Sc3ncc(N4CCC(C)(CN)CC4)nc3N)c2Cl)c(O)c2c(C3CC3)csc21` [Example 4, N-(3-((3-amino-5-(4-(aminomethyl)-4-methylpiperidin-1-yl)pyrazin-2-yl)thio)-2-chlorophenyl)-3-cyclopropyl-4-hydroxy-7-methyl-6-oxo-6,7-dihydrothieno[2,3-b]pyridine-5-carboxamide] gave a pIC50 of 5.99. The molecule `CC1(N)CCN(c2cnc(Sc3ccc(NC(=O)C4=C(O)CN(c5ccccc5)C4=O)cc3Cl)c(N)n2)CC1` [Example 50, N-(4-((3-Amino-5-(4-amino-4-methylpiperidin-1-yl)pyrazin-2-yl)thio)-3-chlorophenyl)-4-hydroxy-2-oxo-1-phenyl-2,5-dihydro-1H-pyrrole-3-carboxamide] had a pIC50 of 7.15. Regarding `CC1(N)CCN(c2cnc(Sc3cccc(NC(=O)C4=C(O)CN(c5ccccc5)C4=O)c3)c(N)n2)CC1` [Example 66, N-(3-((3-Amino-5-(4-amino-4-methylpiperidin-1-yl)pyrazin-2-yl)thio)phenyl)-4-hydroxy-2-oxo-1-phenyl-2,5-dihydro-1H-pyrrole-3-carboxamide], the pIC50 was 7.77. To `O=C(Nc1cccc(Sc2ccc3nc(N4CCCCC4)[nH]c3n2)c1Cl)C1=C(O)[C@H](Cc2ccccc2)NC1=O` [Example 60, (S)-5-benzyl-N-(2-chloro-3-((2-(piperidin-1-yl)-3H-imidazo[4,5-b]pyridin-5-yl)thio)phenyl)-4-hydroxy-2-oxo-2,5-dihydro-1H-pyrrole-3-carboxamide] belongs 7.96; to `NCC1(F)CCN(c2cnc(Sc3cccc(NC(=O)c4c(O)nc5ccccn5c4=O)c3Cl)c(N)n2)CC1` [Example 15, N-(3-((3-amino-5-(4-(aminomethyl)-4-fluoropiperidin-1-yl)pyrazin-2-yl)thio)-2-chlorophenyl)-2-hydroxy-4-oxo-4H-pyrido[1,2-a]pyrimidine-3-carboxamide], 8.00. Turning to `NCC1CCN(c2cnc(Sc3cccc(NC(=O)c4c(O)nc5ccccn5c4=O)c3Cl)c(N)n2)C1` (centres unmarked) [Example 17], the pIC50 is 7.89. On to `CC1(CN)CCN(c2nnc(Sc3cccc(NC(=O)c4c(O)nc5c6ccccc6ccn5c4=O)c3Cl)c(N)n2)CC1` [Example 39, N-(3-((5-amino-3-(4-(aminomethyl)-4-methylpiperidin-1-yl)-1,2,4-triazin-6-yl)thio)-2-chlorophenyl)-2-hydroxy-4-oxo-4H-pyrimido[2,1-a]isoquinoline-3-carboxamide], for which the pIC50 is 7.89. To `CCC1C(O)=C(C(=O)Nc2cccc(Sc3ccc4nc(N5CCCCC5)[nH]c4n3)c2Cl)C(=O)N1c1ccccc1` (centres unmarked) [Example 63, N-(2-chloro-3-((2-(piperidin-1-yl)-3H-imidazo[4,5-b]pyridin-5-yl)thio)phenyl)-5-ethyl-4-hydroxy-2-oxo-1-phenyl-2,5-dihydro-1H-pyrrole-3-carboxamide] belongs 7.28.

The record behind these values is patent publication US10934285B2, “Compounds and compositions for inhibiting the activity of SHP2” (Novartis AG, priority 2016, dated 2021).
